Experimental data published in article PMC9925730, “Controlled sequential in situ self-assembly and disassembly of a fluorogenic cisplatin prodrug for cancer theranostics” (Nature Communications, 2023).
Several values for one entry are separate records, joined by “and”; a condition that tells them apart may be missing. Equal values may be shown once. Read-outs that look alike come from different tables or passages of the source.

Key:
HepG2 cells = assay: Cytotoxicity, MTT assay; assay type: cell-based, human; set-up: key to cell viability, mean: % viability = OD / OD of untreated control
Procedure: (§1) HeLa cells were seeded on flat-bottomed 96-well plates (5000 cells per well) and incubated at 37 °C overnight. Varying concentrations of P-CyPt, Pt^IVNPs or CDDP (0, 1, 2, 5, 10, 20, 30, 50, 100, and 200 μM) in DMEM medium (100 μL) were added. Cells were either incubated for 48 h, or firstly incubated with these three compounds for 2 h, washed with PBS and then incubated with refreshed blank DMEM medium for another 48 h. Then, 3-(4,5)-dimethylthiahiazo (-z-y1)−3,5-di-phenytetrazoliumromide (MTT, 50 μL, 1 mg /mL in PBS) was added into each well. The cells were kept at 37 °C for 4 h, and the solution in each well was carefully removed, followed by addition of dimethyl sulfoxide (DMSO, 150 μL). The absorbance (OD) at 490 nm in each well was acquired on the microplate reader (Tcan). The absorbance of non-treated blank cells (OD control) was used as the control. The percentage of cell viability was calculated by dividing OD to the OD control. […]
(§2) Supplementary Table 4. The IC50 (μM) value of different Pt drugs toward HeLa, HepG2 and HEK-293T cells.a
(§3) Compounds Condition IC50 (μM) HeLa HepG2 HEK-293T […]
(§4) a The IC50 values were measured by the MTT assay. Values denote mean ± s.d. (n = 3 independent experiments). b Cells were incubated with varying concentrations of CDDP, P-CyPt or PtIVNPs for […]
(§5) c Cells were incubated with varying concentrations of CDDP, P-CyPt or PtIVNPs for 2 h, and the mediums were removed, washed with PBS. Blank culture mediums were added, and the cells were kept incubation for another 48 h.

HeLa cells [1] = assay: Cytotoxicity, MTT assay; assay type: cell-based, human; set-up: key to cell viability, mean: % viability = OD / OD of untreated control
Procedure: as §1, §2, §3, §4, §5

HEK-293T cells = assay: Cytotoxicity, MTT assay; assay type: cell-based, human; set-up: key to cell viability, mean: % viability = OD / OD of untreated control
Procedure: as §1, §2, §3, §4, §5

HeLa cells [2] = assay: Flow cytometry analysis of HeLa cell death (Annexin V-FITC/PI); assay type: cell-based, human; details: 20 μM 2 h, then blank medium 48 h
Procedure: Flow cytometric analysis of HeLa cell death. (a) Gating strategy applied for flow cytometric analysis. (b) Representative flow cytometric analysis of HeLa cells by Annexin V-FITC/PI staining. HeLa cells were treated with PBS, CDDP, PtIVNPs or P-CyPt (20 μM) for 2 h, washed with cold PBS for three times, and then continued incubation in refresh blank DMEM medium for another 48 h. The cells were then stained with the Annexin V-FITC/PI kit, and analyzed by flow cytometry. One representative experiment out of two is shown.
Flow cytometry analysis of HeLa cell death. Approximately 2×10^5 cells/well HeLa cells in 2 mL DMEM medium were seeded onto 6-well plates and allowed to grow overnight. The medium was replaced with 1 mL of fresh medium containing P-CyPt (20 μM), PtIVNPs (20 μM) and CDDP (20 μM), respectively. After 2 h incubation, medium was removed and cells were washed with PBS for three times. Then, cells were incubated with fresh medium for another 48 h to induce different levels of apoptosis.
After gentle washing with PBS (×1), the cells were detached from the plates with trypsin (500 μL per well), and the cell pellets were collected after centrifugation at 1000 161× g at 4 °C for 4 min. […] All assays were performed according to the manufacturer instructions, and the cell population was analyzed by annexin V-FITC and PI channels. […]

[3] = test system: orthotopic HepG2/Luc liver tumors; assay: Chemotherapy of orthotopic liver tumors (BL imaging, ex vivo BL and FL imaging); assay type: in vivo, mice;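 for tumor BL intensity of liver: bioluminescence quantified by ROI over liver region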
Procedure: During the treatment, the body weights of mice were also measured every three days. On day 15, all mice were sacrificed, the whole liver were excised and photographed. Then, P-CyPt (10 μM) and D-luciferin (5 mM) were sprayed on the surface of each liver to performed ex vivo BL and NIR FL imaging. The BL images were acquired at 10 min using the BL imaging mode (Open), and the NIR FL images were acquired at 30 min, using a 660 nm excitation filter and a 750 ± 50 nm emission filter. The average BL and FL intensities were quantified by the ROIs measurement in the tumor region of liver using the Living Image Software (4.5.2, PerkinElmer, MA, U.S.A). Each experiment was conducted in four mice.

CC1(C)C(/C=C/C2=C3Oc4cc(OP(=O)(O)O)c(Cl)cc4C=C3CCC2)=[N+](CCCNC(=O)[C@@H](Cc2ccccc2)NC(=O)[C@@H](Cc2ccccc2)NC(=O)CCC(=O)[O][Pt]([NH2])([NH2])([OH])([Cl])[Cl])c2ccccc21 [P-CyPt]
IC50 (HepG2 cells; HepG-2, 2+48 h, individual samples, read-out: IC50-2+48h): 20.2 µM and 17.1 µM (2×)
IC50 (HepG2 cells; HepG-2, 2+48 h, mean of 3 samples, read-out: IC50-2+48h): 18.1 µM
IC50 (HepG2 cells; HepG-2, 48 h, individual samples, read-out: IC50-48h): 9.3 µM and 10.5 µM and 11 µM
cell viability, mean (HepG2 cells; Supplementary Fig. 23 (b), concentration 1 μM): 92.0846
cell viability, mean (HepG2 cells; Supplementary Fig. 23 (b), concentration 2 μM): 82.2394
cell viability, mean (HepG2 cells; Supplementary Fig. 23 (b), concentration 5 μM): 69.0701
cell viability, mean (HepG2 cells; Supplementary Fig. 23 (b), concentration 10 μM): 51.1783
cell viability, mean (HepG2 cells; Supplementary Fig. 23 (b), concentration 20 μM): 33.5308
cell viability, mean (HepG2 cells; Supplementary Fig. 23 (b), concentration 30 μM): 23.4253
cell viability, mean (HepG2 cells; Supplementary Fig. 23 (b), concentration 50 μM): 15.7997
cell viability, mean (HepG2 cells; Supplementary Fig. 23 (b), concentration 100 μM): 10.0234
cell viability, mean (HepG2 cells; Supplementary Fig. 23 (b), concentration 200 μM): 7.08
IC50 (HepG2 cells; Supplementary Fig. 23 (b), read-out: IC50): 10.3 µM
cell viability, mean (HepG2 cells; Supplementary Fig. 24 (b), concentration 1 μM): 95.0066
cell viability, mean (HepG2 cells; Supplementary Fig. 24 (b), concentration 2 μM): 86.4416
cell viability, mean (HepG2 cells; Supplementary Fig. 24 (b), concentration 5 μM): 75.7976
cell viability, mean (HepG2 cells; Supplementary Fig. 24 (b), concentration 10 μM): 64.0113
cell viability, mean (HepG2 cells; Supplementary Fig. 24 (b), concentration 20 μM): 47.6001
cell viability, mean (HepG2 cells; Supplementary Fig. 24 (b), concentration 30 μM): 36.5665
cell viability, mean (HepG2 cells; Supplementary Fig. 24 (b), concentration 50 μM): 27.7515
cell viability, mean (HepG2 cells; Supplementary Fig. 24 (b), concentration 100 μM): 19.0319
cell viability, mean (HepG2 cells; Supplementary Fig. 24 (b), concentration 200 μM): 12.1606
IC50 (HepG2 cells; Supplementary Fig. 24 (b), read-out: IC50): 18.1 µM
IC50 (HepG2 cells; incubated 2 h, then blank medium 48 h, MTT, read-out: IC50 HepG2): 18.1 ± 1.78 µM
IC50 (HepG2 cells; incubated 48 h, MTT, read-out: IC50 HepG2): 10.3 ± 0.87 µM
IC50 (HeLa cells [1]; HeLa, 2+48 h, individual samples, read-out: IC50-2+48h): 14.2 µM and 15.9 µM and 13.5 µM
IC50 (HeLa cells [1]; HeLa, 2+48 h, mean of 3 samples, read-out: IC50-2+48h): 14.6 µM
IC50 (HeLa cells [1]; HeLa, 48 h, individual samples, read-out: IC50-48h): 5.97 µM and 7.11 µM and 7.21 µM
cell viability, mean (HeLa cells [1]; Supplementary Fig. 23 (a), concentration 1 μM): 92.8903
cell viability, mean (HeLa cells [1]; Supplementary Fig. 23 (a), concentration 2 μM): 79.6162
cell viability, mean (HeLa cells [1]; Supplementary Fig. 23 (a), concentration 5 μM): 58.6671
cell viability, mean (HeLa cells [1]; Supplementary Fig. 23 (a), concentration 10 μM): 35.0547
cell viability, mean (HeLa cells [1]; Supplementary Fig. 23 (a), concentration 20 μM): 22.3775
cell viability, mean (HeLa cells [1]; Supplementary Fig. 23 (a), concentration 30 μM): 18.41
cell viability, mean (HeLa cells [1]; Supplementary Fig. 23 (a), concentration 50 μM): 13.1166
cell viability, mean (HeLa cells [1]; Supplementary Fig. 23 (a), concentration 100 μM): 9.42
cell viability, mean (HeLa cells [1]; Supplementary Fig. 23 (a), concentration 200 μM): 5.73
IC50 (HeLa cells [1]; Supplementary Fig. 23 (a), read-out: IC50): 6.76 µM
cell viability, mean (HeLa cells [1]; Supplementary Fig. 24 (a), concentration 1 μM): 94.9375
cell viability, mean (HeLa cells [1]; Supplementary Fig. 24 (a), concentration 2 μM): 87.7526
cell viability, mean (HeLa cells [1]; Supplementary Fig. 24 (a), concentration 5 μM): 73.6215
cell viability, mean (HeLa cells [1]; Supplementary Fig. 24 (a), concentration 10 μM): 60.3727
cell viability, mean (HeLa cells [1]; Supplementary Fig. 24 (a), concentration 20 μM): 43.1523
cell viability, mean (HeLa cells [1]; Supplementary Fig. 24 (a), concentration 30 μM): 31.9252
cell viability, mean (HeLa cells [1]; Supplementary Fig. 24 (a), concentration 50 μM): 21.7758
cell viability, mean (HeLa cells [1]; Supplementary Fig. 24 (a), concentration 100 μM): 11.35
cell viability, mean (HeLa cells [1]; Supplementary Fig. 24 (a), concentration 200 μM): 7.117
IC50 (HeLa cells [1]; incubated 2 h, then blank medium 48 h, MTT, read-out: IC50 HeLa): 14.6 ± 1.24 µM
IC50 (HeLa cells [1]; incubated 48 h, MTT, read-out: IC50 HeLa): 6.76 ± 0.68 µM
IC50 (HEK-293T cells; HEK-293T, 2+48 h, individual samples, read-out: IC50-2+48h): > 200 µM
IC50 (HEK-293T cells; HEK-293T, 2+48 h, mean of 3 samples, read-out: IC50-2+48h): > 200 µM
IC50 (HEK-293T cells; HEK-293T, 48 h, individual samples, read-out: IC50-48h): 43.8 µM and 50.3 µM and 51.8 µM
cell viability, mean (HEK-293T cells; Supplementary Fig. 23 (c), concentration 1 μM): 98.4753
cell viability, mean (HEK-293T cells; Supplementary Fig. 23 (c), concentration 2 μM): 94.8818
cell viability, mean (HEK-293T cells; Supplementary Fig. 23 (c), concentration 5 μM): 91.0944
cell viability, mean (HEK-293T cells; Supplementary Fig. 23 (c), concentration 10 μM): 84.8089
cell viability, mean (HEK-293T cells; Supplementary Fig. 23 (c), concentration 20 μM): 73.4808
cell viability, mean (HEK-293T cells; Supplementary Fig. 23 (c), concentration 30 μM): 62.5624
cell viability, mean (HEK-293T cells; Supplementary Fig. 23 (c), concentration 50 μM): 47.5251
cell viability, mean (HEK-293T cells; Supplementary Fig. 23 (c), concentration 100 μM): 31.456
cell viability, mean (HEK-293T cells; Supplementary Fig. 23 (c), concentration 200 μM): 17.421
cell viability, mean (HEK-293T cells; Supplementary Fig. 24 (c), concentration 1 μM): 97.0705
cell viability, mean (HEK-293T cells; Supplementary Fig. 24 (c), concentration 2 μM): 99.2124
cell viability, mean (HEK-293T cells; Supplementary Fig. 24 (c), concentration 5 μM): 98.6059
cell viability, mean (HEK-293T cells; Supplementary Fig. 24 (c), concentration 10 μM): 96.2404
cell viability, mean (HEK-293T cells; Supplementary Fig. 24 (c), concentration 20 μM): 97.2347
cell viability, mean (HEK-293T cells; Supplementary Fig. 24 (c), concentration 30 μM): 96.0142
cell viability, mean (HEK-293T cells; Supplementary Fig. 24 (c), concentration 50 μM): 92.8073
cell viability, mean (HEK-293T cells; Supplementary Fig. 24 (c), concentration 100 μM): 92.5552
cell viability, mean (HEK-293T cells; Supplementary Fig. 24 (c), concentration 200 μM): 88.5457
IC50 (HEK-293T cells; Supplementary Fig. 24 (c), read-out: IC50): > 200 µM
IC50 (HEK-293T cells; incubated 2 h, then blank medium 48 h, MTT, read-out: IC50 HEK-293T): > 200 µM
IC50 (HEK-293T cells; incubated 48 h, MTT, read-out: IC50 HEK-293T): 48.6 ± 4.24 µM
apoptosis population (HeLa cells [2]): ~ 64.5%
tumor BL over the course of treatment ([3]; 2.25 mg kg^−1 Pt i.v. on day 0, 3, 6, 9, 12): did not obviously increase
tumor BL intensity of liver ([3]; day 15): 9376.5
metastatic tumor foci in the livers ([3]; day 15, ex vivo BL imaging): No metastatic tumor foci
Normalized FL intensity of mCy (ex vivo liver tumor, Fig. 5h) ([3]; day 15, livers sprayed with P-CyPt 10 μM, normalized to PBS group): 0.23
Normalized BL intensity (ex vivo liver tumor, Fig. 5h) ([3]; day 15, normalized to PBS group): 0.22
